Measurements taken from the supplement of paper PMC8612539.
Converted amounts (≈) assume the structure as drawn.

System: Pasteurella multocida
Assay: minimum inhibitory concentration (MIC)
Protocol: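 Broth microdilution MIC (Sensititre BOPO7F bovine plate, CLSI methods) of 19 antimicrobials against field isolates of P. multocida, M. haemolytica, H. somni (deep nasopharyngeal swabs) and E. coli, Enterococcus spp. (rectal swabs) from weaned dairy heifers. Incubation 16-24 h at 35 C. MIC is the lowest concentration preventing visible growth. Values with <= or > lie at the tested range limits. Trimethoprim-sulfamethoxazole is given as the trimethoprim component of a 1:19 mixture.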

C=C[C@]1(C)C[C@@H](OC(=O)CSCCN(CC)CC)[C@]2(C)[C@H](C)CC[C@]3(CCC(=O)[C@H]32)[C@@H](C)[C@@H]1O [Tiamulin]
Conditions | minimum inhibitory concentration [µg/mL]
isolate (source animal id): 10 | 16 (≈ 32.4 µM)
isolate (source animal id): 11 | 16 (≈ 32.4 µM)
isolate (source animal id): 12 | 16 (≈ 32.4 µM)
isolate (source animal id): 19 | 16 (≈ 32.4 µM)
isolate (source animal id): 23 | 16 (≈ 32.4 µM)
isolate (source animal id): 26 | 32 (≈ 64.8 µM)
isolate (source animal id): 98 | 32 (≈ 64.8 µM)
isolate (source animal id): 104 | 32 (≈ 64.8 µM)
isolate (source animal id): 115 | 32 (≈ 64.8 µM)
isolate (source animal id): 117 | 32 (≈ 64.8 µM)
isolate (source animal id): 118 | 32 (≈ 64.8 µM)
isolate (source animal id): 121 | 32 (≈ 64.8 µM)
isolate (source animal id): 124 | 32 (≈ 64.8 µM)
isolate (source animal id): 125 | 32 (≈ 64.8 µM)
isolate (source animal id): 128 | 32 (≈ 64.8 µM)
isolate (source animal id): 131 | 32 (≈ 64.8 µM)
isolate (source animal id): 135 | 16 (≈ 32.4 µM)
isolate (source animal id): 136 | 32 (≈ 64.8 µM)
isolate (source animal id): 140 | 32 (≈ 64.8 µM)
isolate (source animal id): 144 | 32 (≈ 64.8 µM)
isolate (source animal id): 146 | 32 (≈ 64.8 µM)
isolate (source animal id): 150 | 32 (≈ 64.8 µM)
isolate (source animal id): 151 | 32 (≈ 64.8 µM)
isolate (source animal id): 153 | 32 (≈ 64.8 µM)
isolate (source animal id): 155 | 32 (≈ 64.8 µM)
isolate (source animal id): 157 | 16 (≈ 32.4 µM)
isolate (source animal id): 160 | 32 (≈ 64.8 µM)
isolate (source animal id): 164 | 32 (≈ 64.8 µM)
isolate (source animal id): 165 | 32 (≈ 64.8 µM)
isolate (source animal id): 167 | 32 (≈ 64.8 µM)
isolate (source animal id): 168 | 32 (≈ 64.8 µM)
isolate (source animal id): 169 | 16 (≈ 32.4 µM)
isolate (source animal id): 170 | 32 (≈ 64.8 µM)
isolate (source animal id): 171 | 32 (≈ 64.8 µM)
isolate (source animal id): 172 | 32 (≈ 64.8 µM)
isolate (source animal id): 173 | 32 (≈ 64.8 µM)
isolate (source animal id): 174 | 16 (≈ 32.4 µM)
isolate (source animal id): 175 | 32 (≈ 64.8 µM)
isolate (source animal id): 176 | 16 (≈ 32.4 µM)
isolate (source animal id): 177 | 32 (≈ 64.8 µM)
isolate (source animal id): 178 | 32 (≈ 64.8 µM)
isolate (source animal id): 179 | 32 (≈ 64.8 µM)
isolate (source animal id): 182 | 32 (≈ 64.8 µM)
isolate (source animal id): 192 | 32 (≈ 64.8 µM)
isolate (source animal id): 193 | 32 (≈ 64.8 µM)
isolate (source animal id): 195 | 32 (≈ 64.8 µM)
isolate (source animal id): 196 | 32 (≈ 64.8 µM)
isolate (source animal id): 197 | 32 (≈ 64.8 µM)
isolate (source animal id): 198 | 32 (≈ 64.8 µM)
isolate (source animal id): 199 | 32 (≈ 64.8 µM)
isolate (source animal id): 200 | 32 (≈ 64.8 µM)
isolate (source animal id): 201 | 32 (≈ 64.8 µM)
isolate (source animal id): 203 | 16 (≈ 32.4 µM)
isolate (source animal id): 204 | 32 (≈ 64.8 µM)
isolate (source animal id): 205 | 32 (≈ 64.8 µM)
isolate (source animal id): 206 | 32 (≈ 64.8 µM)
isolate (source animal id): 207 | 32 (≈ 64.8 µM)
isolate (source animal id): 208 | 16 (≈ 32.4 µM)
isolate (source animal id): 209 | 16 (≈ 32.4 µM)
isolate (source animal id): 210 | 32 (≈ 64.8 µM)
isolate (source animal id): 213 | 16 (≈ 32.4 µM)
isolate (source animal id): 216 | 32 (≈ 64.8 µM)
isolate (source animal id): 223 | 16 (≈ 32.4 µM)
isolate (source animal id): 227 | 16 (≈ 32.4 µM)
isolate (source animal id): 229 | 32 (≈ 64.8 µM)
isolate (source animal id): 233 | > 32
isolate (source animal id): 234 | 32 (≈ 64.8 µM)
isolate (source animal id): 237 | 32 (≈ 64.8 µM)
isolate (source animal id): 241 | 32 (≈ 64.8 µM)
isolate (source animal id): 245 | 32 (≈ 64.8 µM)
isolate (source animal id): 247 | 32 (≈ 64.8 µM)
isolate (source animal id): 250 | 32 (≈ 64.8 µM)
isolate (source animal id): 254 | 32 (≈ 64.8 µM)
isolate (source animal id): 255 | 16 (≈ 32.4 µM)
isolate (source animal id): 258 | 32 (≈ 64.8 µM)
isolate (source animal id): 261 | 32 (≈ 64.8 µM)
isolate (source animal id): 262 | 32 (≈ 64.8 µM)
isolate (source animal id): 269 | 32 (≈ 64.8 µM)
isolate (source animal id): 270 | 32 (≈ 64.8 µM)
isolate (source animal id): 274 | 32 (≈ 64.8 µM)
isolate (source animal id): 275 | 32 (≈ 64.8 µM)
isolate (source animal id): 276 | 32 (≈ 64.8 µM)
isolate (source animal id): 277 | 32 (≈ 64.8 µM)
isolate (source animal id): 278 | 32 (≈ 64.8 µM)
isolate (source animal id): 279 | 32 (≈ 64.8 µM)
isolate (source animal id): 280 | 32 (≈ 64.8 µM)
isolate (source animal id): 284 | 32 (≈ 64.8 µM)
isolate (source animal id): 285 | 32 (≈ 64.8 µM)
isolate (source animal id): 287 | 32 (≈ 64.8 µM)
isolate (source animal id): 290 | 32 (≈ 64.8 µM)
isolate (source animal id): 294 | 32 (≈ 64.8 µM)
isolate (source animal id): 295 | > 32
isolate (source animal id): 296 | 32 (≈ 64.8 µM)
isolate (source animal id): 307 | 32 (≈ 64.8 µM)
isolate (source animal id): 310 | > 32
isolate (source animal id): 311 | > 32
isolate (source animal id): 312 | 32 (≈ 64.8 µM)
isolate (source animal id): 313 | 32 (≈ 64.8 µM)
isolate (source animal id): 315 | 32 (≈ 64.8 µM)
isolate (source animal id): 316 | 32 (≈ 64.8 µM)

CC[C@H]1OC(=O)C[C@@H](O)[C@H](C)[C@@H](O[C@@H]2O[C@H](C)[C@@H](O)[C@H](N(C)C)[C@H]2O)[C@@H](CCN2CCCCC2)C[C@@H](C)C(=O)/C=C/C(C)=C/[C@@H]1CN1CCCCC1 [Tildipirosin]
Conditions | minimum inhibitory concentration [µg/mL]
isolate (source animal id): 10 | > 16
isolate (source animal id): 11 | > 16
isolate (source animal id): 12 | > 16
isolate (source animal id): 19 | > 16
isolate (source animal id): 23 | > 16
isolate (source animal id): 26 | > 16
isolate (source animal id): 98 | > 16
isolate (source animal id): 104 | > 16
isolate (source animal id): 115 | > 16
isolate (source animal id): 117 | > 16
isolate (source animal id): 118 | > 16
isolate (source animal id): 121 | > 16
isolate (source animal id): 124 | > 16
isolate (source animal id): 125 | > 16
isolate (source animal id): 128 | > 16
isolate (source animal id): 131 | > 16
isolate (source animal id): 135 | > 16
isolate (source animal id): 136 | > 16
isolate (source animal id): 140 | > 16
isolate (source animal id): 144 | > 16
isolate (source animal id): 146 | > 16
isolate (source animal id): 150 | > 16
isolate (source animal id): 151 | > 16
isolate (source animal id): 153 | > 16
isolate (source animal id): 155 | > 16
isolate (source animal id): 157 | > 16
isolate (source animal id): 160 | > 16
isolate (source animal id): 164 | > 16
isolate (source animal id): 165 | > 16
isolate (source animal id): 167 | ≤ 1
isolate (source animal id): 168 | > 16
isolate (source animal id): 169 | ≤ 1
isolate (source animal id): 170 | 2 (≈ 2.72 µM)
isolate (source animal id): 171 | ≤ 1
isolate (source animal id): 172 | ≤ 1
isolate (source animal id): 173 | > 16
isolate (source animal id): 174 | ≤ 1
isolate (source animal id): 175 | ≤ 1
isolate (source animal id): 176 | ≤ 1
isolate (source animal id): 177 | ≤ 1
isolate (source animal id): 178 | ≤ 1
isolate (source animal id): 179 | ≤ 1
isolate (source animal id): 182 | 2 (≈ 2.72 µM)
isolate (source animal id): 192 | ≤ 1
isolate (source animal id): 193 | ≤ 1
isolate (source animal id): 195 | ≤ 1
isolate (source animal id): 196 | ≤ 1
isolate (source animal id): 197 | 2 (≈ 2.72 µM)
isolate (source animal id): 198 | > 16
isolate (source animal id): 199 | ≤ 1
isolate (source animal id): 200 | ≤ 1
isolate (source animal id): 201 | ≤ 1
isolate (source animal id): 203 | ≤ 1
isolate (source animal id): 204 | ≤ 1
isolate (source animal id): 205 | > 16
isolate (source animal id): 206 | ≤ 1
isolate (source animal id): 207 | ≤ 1
isolate (source animal id): 208 | ≤ 1
isolate (source animal id): 209 | ≤ 1
isolate (source animal id): 210 | > 16
isolate (source animal id): 213 | 2 (≈ 2.72 µM)
isolate (source animal id): 216 | ≤ 1
isolate (source animal id): 223 | > 16
isolate (source animal id): 227 | ≤ 1
isolate (source animal id): 229 | > 16
isolate (source animal id): 233 | > 16
isolate (source animal id): 234 | > 16
isolate (source animal id): 237 | > 16
isolate (source animal id): 241 | > 16
isolate (source animal id): 245 | > 16
isolate (source animal id): 247 | > 16
isolate (source animal id): 250 | > 16
isolate (source animal id): 254 | > 16
isolate (source animal id): 255 | > 16
isolate (source animal id): 258 | ≤ 1
isolate (source animal id): 261 | > 16
isolate (source animal id): 262 | > 16
isolate (source animal id): 269 | ≤ 1
isolate (source animal id): 270 | > 16
isolate (source animal id): 274 | > 16
isolate (source animal id): 275 | > 16
isolate (source animal id): 276 | > 16
isolate (source animal id): 277 | ≤ 1
isolate (source animal id): 278 | > 16
isolate (source animal id): 279 | > 16
isolate (source animal id): 280 | > 16
isolate (source animal id): 284 | > 16
isolate (source animal id): 285 | > 16
isolate (source animal id): 287 | > 16
isolate (source animal id): 290 | > 16
isolate (source animal id): 294 | > 16
isolate (source animal id): 295 | > 16
isolate (source animal id): 296 | > 16
isolate (source animal id): 307 | > 16
isolate (source animal id): 310 | > 16
isolate (source animal id): 311 | > 16
isolate (source animal id): 312 | > 16
isolate (source animal id): 313 | > 16
isolate (source animal id): 315 | > 16
isolate (source animal id): 316 | > 16
